The values that follow come from US11981660B2, “Neurite outgrowth promoters and uses thereof” (UNIVERSITY OF MIAMI, priority 2018, dated 2024).

SMILES strings stand for the structures.

The subject of the test is hippocampal neurons. The test can be described thus: Neurite outgrowth assay in cultured E18 rat hippocampal neurons (48 h, βIII-tubulin staining, Cellomics ArrayScan). In kind it is cell-based. To be noted: Hippocampal neuron; for activity at 0.015625 µg/mL: 15.625 ng/mL compound; for activity at 0.015625 µg/mL / activity at 0.03125 µg/mL / activity at 0.0625 µg/mL / activity at 0.125 µg/mL / activity at 0.25 µg/mL / activity at 0.5 µg/mL: 48 hours, read-out: neurite growth length (% NTL); for activity at 0.03125 µg/mL: 31.25 ng/mL compound; for activity at 0.0625 µg/mL: 62.5 ng/mL compound; for activity at 0.125 µg/mL: 125 ng/mL compound; for activity at 0.25 µg/mL: 250 ng/mL compound; for activity at 0.5 µg/mL: 500 ng/mL compound; for EC200 / EC300: 48 h, estimated using linear interpolation; for EC200: 200% effective dose, read-out: ED200%; for EC300: 300% effective dose, read-out: ED300%. On the procedure: Pre-coating culture plates: On the day before the experiment, 96-well plates were pre-coated by plating 50 μL of poly-D-lysine solution (PDL, 0.5 mg/mL) in each well. The next morning, the plates were washed four or five times with HBSS or PBS (150 μL/rinse), then left in buffer until cell plating
Preparing the cells: A timed pregnant rat carrying E18 embryos was euthanized using an IACUC approved method. In a laminar flow hood, the embryos were removed and placed in a petri dish containing Hank's Balanced Salt Solution (HBSS) with 20 mM HEPES, pH 7.3. Pup brains were dissected (see Meberg et al., Methods cell Biol 71:111-127 (2003)) and hippocampi were collected in 15 mL a conical tube containing Hibernate E with SM1 (2% v/v).
Dissociation media was prepared by combining 4.5 mL of Hibernate E (without SM1) with 0.5 mL of trypsin and 100 μl of DNAse solution. The medium over the hippocampi was carefully removed and replaced with dissociation solution, then incubated at 37° C. for 15-20 minutes, occasionally swirling the tube.
Using flame polished cotton plugged Pasteur pipettes, the dissociation media was removed, and then 5 mL of Hibernate E containing SM1 were added. The tube was swirled to thoroughly wash the tissue. The tissue was allowed to settle to the bottom of the tube, and the rinse solution was carefully removed. This step was repeated 5 times to dilute out trypsin and DNAse and remove any debris from lysed cells.
The final rinse media was removed from the tube and 1 pipette-full (1-2 mL) of Hibernate E with SM1 was added. Using the flame-polished Pasteur pipette (pre-wetted with rinse media), the tube was triturated until all cells had dissociated and no visible chunks of tissue remained. Fewer than ten triturations were typically performed. The volume was adjusted to 8-12 mL using Hibernate E containing SM1, the well was mixed and cell concentration was determined.
Plating: The cells were diluted in culture media (NbActiv4 Cell-culture media) to a final concentration of 10,000 cells/mL. The HBSS was aspirated from PDL coated plates, and 150 μL of cell solution was loaded in the middle 48 wells at 1500 cells per well. Water was loaded in the outer wells to decrease evaporation from edge wells. Cells were allowed to adhere for 2 hours in tissue culture incubator prior to treatment.
Treatment: Compounds were diluted to various concentrations to provide 6 dose response concentrations of 500 ng/mL, 250 ng/mL, 125 ng/mL, 62.5 ng/mL, 31.25 ng/mL, and 15.625 ng/mL. The plates were cultured for 48 hours, exposed to the compound at the various dose response concentrations.
Fixing the cultures: The culture medium was removed from the plates and immediately replaced with 100-200 μL of warm (37° C.) 4% paraformaldehyde (“PFA”) solution in phosphate-buffered saline (“PBS”). The cells were fixed for 15-20 minutes at room temperature, and then rinsed with PBS (200 μl/well×3).
Staining and imaging: The PBS was removed and replaced with 100 μL of blocking/permeabilization buffer (PBS, 0.2% fish gelatin, 0.03% Triton X-100, 0.02% NaN3), then incubated overnight at 4° C. To this was added 100 μL of primary antibody solution (mouse anti-Beta III tubulin in blocking buffer) and incubate overnight at 4° C. The wells were rinsed with PBS (200 μl×3), which was then removed and replaced with 100 μL of secondary antibody solution (Goat anti-mouse Alexa 488, 10 μg/ml Hoechst 33342, 0.2% fish gelatin, 0.02% azide, in PBS). The plate was shaken gently on a rotating shaker for 2 hours, then rinsed with PBS (200 μl×5).
The plate was imaged using a Cellomics ArrayScan VTI in 2 different channels for nuclear staining (Hoechst) and cell body/neurite staining (βIII-tubulin). Typically, nine fields per well were imaged with a 5× objective and automatically traced by the Neuronal Profiling Bioapplication. To get reproducible results, at least 200-300 valid neurons were measured per condition. […]

On to `CC(C)C[C@@H]1CN(CCCC[C@H]2CNC(C3CCCC3)=N2)C(=S)N1CCC1CCCCC1` [Compound A14, (R)-3-(2-cyclohexylethyl)-1-(4-((S)-2-cyclopentyl-4,5-dihydro-1H-imidazol-4-yl)butyl)-4-isobutylimidazolidine-2-thione], for which the activity at 0.015625 µg/mL was 195%, the activity at 0.03125 µg/mL amounted to 256%, the activity at 0.0625 µg/mL worked out at 271% and the activity at 0.125 µg/mL amounted to 283%. The activity at 0.25 µg/mL is 277%, the activity at 0.5 µg/mL turned out to be 249%, the EC200 was 0.004 µM and the EC300 was more than 0.543 µM.

`CC(C)CCCN1C(=S)N(CCCC[C@H]2CNC(C3CCCC3)=N2)C[C@H]1C` [Compound A2, (R)-1-(4-((S)-2-cyclopentyl-4,5-dihydro-1H-imidazol-4-yl)butyl)-4-methyl-3-(4-methylpentyl)imidazolidine-2-thione]: the activity at 0.015625 µg/mL stood at 114%, the activity at 0.03125 µg/mL amounted to 138%, the activity at 0.0625 µg/mL worked out at 176% and the activity at 0.125 µg/mL stood at 214%. The activity at 0.25 µg/mL was 265% and the activity at 0.5 µg/mL amounted to 324%.

For the molecule `CC1CCC(CN2C(=S)N(CCCC[C@H]3CNC(C4CCCC4)=N3)C[C@H]2C)CC1` (stereo partly drawn) [Compound A8, (R)-1-(4-((S)-2-cyclopentyl-4,5-dihydro-1H-imidazol-4-yl)butyl)-4-methyl-3-((4-methylcyclohexyl)methyl)imidazolidine-2-thione], the activity at 0.015625 µg/mL amounted to 95%, the activity at 0.03125 µg/mL stood at 128%, the activity at 0.0625 µg/mL was found to be 168% and the activity at 0.125 µg/mL turned out to be 231%. Further, the activity at 0.25 µg/mL was 257%, the activity at 0.5 µg/mL is 322%, the EC200 was 0.13 µM and the EC300 is 0.282 µM.

As to `S=C1N(CCCC[C@H]2CNC(CCCc3ccccc3)=N2)C[C@@H](c2ccccc2)N1CCC1CCCCC1` [Compound A24, (R)-3-(2-cyclohexylethyl)-4-phenyl-1-(4-((S)-2-(3-phenylpropyl)-4,5-dihydro-1H-imidazol-4-yl)butyl)imidazolidine-2-thione], the activity at 0.015625 µg/mL turned out to be 144%, the activity at 0.03125 µg/mL stood at 209%, the activity at 0.0625 µg/mL turned out to be 252% and the activity at 0.125 µg/mL came to 254%. In addition, the activity at 0.25 µg/mL is 222% and the activity at 0.5 µg/mL is 184%.
